Assay [1] deals with Spontaneously hypertensive rats (SHR). Nature of the assay: Acute Efficacy in Spontaneously Hypertensive Rats (SHR), telemetry blood pressure. In kind it is in vivo, rat. The note with it: single oral gavage. The text has this: Spontaneously hypertensive rats (SHR, male, Charles River) were implanted with DSI TA11PA-C40 telemetry device (Data Sciences, Inc., St. Paul, Minn.) under isoflurane or ketamine/metomidine anesthesia. The telemetry unit catheter was inserted into the descending aorta via the femoral artery and the telemetry device was implanted subcutaneously in the left flank area. Animals were allowed to recover from surgery for 14 days before the start of any studies. Blood pressure, heart rate, and activity signals from conscious, freely moving rats were recorded continuously for 30 seconds every 10 minutes. On the day prior to administration of compound, a single oral dose of vehicle (10% transcutol/20% Cremophor/70% water) was administered to all animals to establish baseline control data. The blood pressure lowering efficacy of compound (PO) or vehicle was evaluated following a single oral gavage. Data were collected as hourly averages, and changes in blood pressure were calculated by subtracting control baseline data on an hourly basis. Animals were maintained on normal diet with a 12 hour light-dark cycle.
Maximum peak decreases of systolic blood pressure (SBP) in SHR at a particular P.O. dose (mpk milligrams per kilogram) for the following representative compounds are provided. Category A=SBP in SHRs <20 mmHg; Category B=SBP in SHRs 20-40 mmHg; Category C=SBP in SHRs >40 mmHg.

In assay [2] the target is T1, sGC α1/β1 heterodimer (Homo sapiens, UniProt Q02108+Q02153).
T1 construct: expressed in transfected cells
T1 sequence (Q02108 1-690): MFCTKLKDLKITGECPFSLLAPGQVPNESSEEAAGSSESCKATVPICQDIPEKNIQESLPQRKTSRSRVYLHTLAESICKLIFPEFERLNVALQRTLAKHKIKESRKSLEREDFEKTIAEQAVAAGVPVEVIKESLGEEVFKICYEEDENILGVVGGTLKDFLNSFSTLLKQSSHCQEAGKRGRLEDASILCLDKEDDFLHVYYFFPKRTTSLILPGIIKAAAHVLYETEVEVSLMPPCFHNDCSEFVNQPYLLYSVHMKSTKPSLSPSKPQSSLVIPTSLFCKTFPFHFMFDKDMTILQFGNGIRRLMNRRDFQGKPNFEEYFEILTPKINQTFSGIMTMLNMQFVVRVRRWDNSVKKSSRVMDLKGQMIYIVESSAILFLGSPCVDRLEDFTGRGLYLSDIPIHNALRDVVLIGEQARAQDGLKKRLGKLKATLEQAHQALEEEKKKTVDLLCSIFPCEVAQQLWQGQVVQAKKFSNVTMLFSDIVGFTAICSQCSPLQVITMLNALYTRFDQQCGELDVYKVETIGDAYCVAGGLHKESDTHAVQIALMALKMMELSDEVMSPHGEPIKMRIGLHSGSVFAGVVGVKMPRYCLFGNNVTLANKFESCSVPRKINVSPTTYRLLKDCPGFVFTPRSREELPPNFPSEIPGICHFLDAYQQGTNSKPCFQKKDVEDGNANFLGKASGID
T1 sequence (Q02153 1-619): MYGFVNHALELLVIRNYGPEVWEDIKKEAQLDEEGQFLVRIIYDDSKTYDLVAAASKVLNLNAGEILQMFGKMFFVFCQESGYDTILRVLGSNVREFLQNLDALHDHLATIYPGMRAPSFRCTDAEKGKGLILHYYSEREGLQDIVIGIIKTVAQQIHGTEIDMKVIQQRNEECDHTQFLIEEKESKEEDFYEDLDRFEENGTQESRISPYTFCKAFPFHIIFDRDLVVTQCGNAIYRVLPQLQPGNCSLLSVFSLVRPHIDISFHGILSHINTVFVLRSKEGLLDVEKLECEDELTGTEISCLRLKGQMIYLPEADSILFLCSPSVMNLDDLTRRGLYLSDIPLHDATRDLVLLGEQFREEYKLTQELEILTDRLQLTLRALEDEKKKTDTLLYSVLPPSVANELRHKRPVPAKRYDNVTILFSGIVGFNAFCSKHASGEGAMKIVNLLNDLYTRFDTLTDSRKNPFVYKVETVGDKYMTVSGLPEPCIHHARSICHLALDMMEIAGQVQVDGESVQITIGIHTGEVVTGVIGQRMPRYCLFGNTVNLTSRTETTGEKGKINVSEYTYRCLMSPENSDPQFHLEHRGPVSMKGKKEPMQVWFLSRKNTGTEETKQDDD
As to the kind of experiment: Cell-Based sGC Functional Assay (CASA Assay), cGMP generation in CHO-K1/sGC cells.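 Note: reference Compound A is a published heme-dependent sGC activator.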 The note with it: maximum cGMP production of Compound A set to 100% activation, read-out: % Act. (percent activation relative to Compound A). Summed up:
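Intracellular cGMP quantified by HTRF competition after 1 h, 37 °C compound exposure, with or without 1 μM DETA-NO, in stable CHO-K1/sGC α1/β1 cells (4×10^5/mL; buffer with 0.5 mM IBMX, 5 mM MgCl2, 10 mM HEPES, 0.05% BSA; 2.5% DMSO). Activation normalized to reference Compound A maximum; 4P fit.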

For `Nc1nc(-c2cn3ncnc3c(CCCC(F)(F)F)n2)nc2c1C(c1ccc(Cl)c(F)c1)(C1CC1)C(=O)N2` (stereo not drawn) [Example 33A, 4-amino-5-(4-chloro-3-fluorophenyl)-5-cyclopropyl-2-(8-(4,4,4-trifluorobutyl)-[1,2,4]triazolo[1,5-a]pyrazin-6-yl)-5H-pyrrolo[2,3-d]pyrimidin-6(7H)-one], the “Maximum peak decrease of systolic blood pressure (SBP) in SHR, Cat.” value (shortened to “Maximum peak decrease”) in assay [1] (P.O. 0.3 mpk) is recorded as “C (Category C=SBP in SHRs >40 mmHg)”. Moreover, the Emax in assay [2] was 107%.

As for `Nc1nc(-c2cn3ncnc3c(CCCC(F)(F)F)n2)nc2c1C(c1ccc(F)cn1)(C1CC1)C(=O)N2` (stereo not drawn) [Example 34A, 4-amino-5-cyclopropyl-5-(5-fluoropyridin-2-yl)-2-(8-(4,4,4-trifluorobutyl)-[1,2,4]triazolo[1,5-a]pyrazin-6-yl)-5H-pyrrolo[2,3-d]pyrimidin-6(7H)-one], in assay [1] (P.O. 0.3 mpk), the “Maximum peak decrease” value is “C (Category C=SBP in SHRs >40 mmHg)”. The Emax in assay [2] came to 235%.

Consider `CC1(c2ccccn2)C(=O)Nc2nc(-c3cn4ncnc4c(CCCC(F)(F)F)n3)nc(N)c21` (stereo not drawn) [Example 36B, 4-amino-5-methyl-5-(pyridin-2-yl)-2-(8-(4,4,4-trifluorobutyl)-[1,2,4]triazolo[1,5-a]pyrazin-6-yl)-5H-pyrrolo[2,3-d]pyrimidin-6(7H)-one], for which, in assay [1] (P.O. 1 mpk), the “Maximum peak decrease” value was “B (Category B=SBP in SHRs 20-40 mmHg)”. Also, the Emax in assay [2] is 82%.

`COc1ccc(C2(C3CC3)C(=O)Nc3nc(-c4cn5ncnc5c(CCCC(F)(F)F)n4)nc(N)c32)nc1` (stereo not drawn) [Example 39A, 4-amino-5-cyclopropyl-5-(5-methoxypyridin-2-yl)-2-(8-(4,4,4-trifluorobutyl)-[1,2,4]triazolo[1,5-a]pyrazin-6-yl)-5H-pyrrolo[2,3-d]pyrimidin-6(7H)-one]: the “Maximum peak decrease” value in assay [1] (P.O. 0.3 mpk) is given as “B (Category B=SBP in SHRs 20-40 mmHg)”. For the same molecule, in assay [2], the Emax was determined as 96%.

For `Nc1nc(-c2cn3ncnc3c(CCCC(F)(F)F)n2)nc2c1C(c1ncc(Cl)cn1)(C1CC1)C(=O)N2` (stereo not drawn) [Example 41A, 4-amino-5-(5-chloropyrimidin-2-yl)-5-cyclopropyl-2-(8-(4,4,4-trifluorobutyl)-[1,2,4]triazolo[1,5-a]pyrazin-6-yl)-5H-pyrrolo[2,3-d]pyrimidin-6(7H)-one], the “Maximum peak decrease” value in assay [1] (P.O. 0.3 mpk) is on record as “B (Category B=SBP in SHRs 20-40 mmHg)”. In addition, in assay [2], the Emax was 151%.

As for `CCCc1nc(-c2nc(N)c3c(n2)NC(=O)C3(c2ccc(C(F)(F)F)cn2)C2CC2)cn2ncnc12` (stereo not drawn) [Example 56A, 4-amino-5-cyclopropyl-2-(8-propyl-[1,2,4]triazolo[1,5-a]pyrazin-6-yl)-5-(5-(trifluoromethyl)pyridin-2-yl)-5H-pyrrolo[2,3-d]pyrimidin-6(7H)-one], the “Maximum peak decrease” value in assay [1] (P.O. 3 mpk) is “B (Category B=SBP in SHRs 20-40 mmHg)”. The Emax in assay [2] turned out to be 81%.

Turning to `CCCCc1nc(-c2nc(N)c3c(n2)NC(=O)[C@@]3(C)c2ccc(F)cc2)cn2ncnc12` [Example 60A, (S)-4-amino-2-(8-butyl-[1,2,4]triazolo[1,5-a]pyrazin-6-yl)-5-(4-fluorophenyl)-5-methyl-5,7-dihydro-6H-pyrrolo[2,3-d]pyrimidin-6-one], in assay [1] (P.O. 0.3 mpk), the “Maximum peak decrease” value was “C (Category C=SBP in SHRs >40 mmHg)”. Further, the Emax in assay [2] was 121%.

For `CCCCc1nc(-c2nc(N)c3c(n2)NC(=O)C3(C)c2ccc(F)cn2)cn2ncnc12` (stereo not drawn) [Example 61B, 4-amino-2-(8-butyl-[1,2,4]triazolo[1,5-a]pyrazin-6-yl)-5-(5-fluoropyridin-2-yl)-5-methyl-5H-pyrrolo[2,3-d]pyrimidin-6(7H)-one], the “Maximum peak decrease” value in assay [1] (P.O. 0.3 mpk) is “C (Category C=SBP in SHRs >40 mmHg)”. Also, the Emax in assay [2] worked out at 177%.

Take `CCCCc1nc(-c2nc(N)c3c(n2)NC(=O)C3(c2ccc(F)c(F)c2)C2CC2)cn2ncnc12` (stereo not drawn) [Example 65A, 4-amino-2-(8-butyl-[1,2,4]triazolo[1,5-a]pyrazin-6-yl)-5-cyclopropyl-5-(3,4-difluorophenyl)-5H-pyrrolo[2,3-d]pyrimidin-6(7H)-one]: the “Maximum peak decrease” value in assay [1] (P.O. 0.3 mpk) is “C (Category C=SBP in SHRs >40 mmHg)”. In addition, the Emax in assay [2] amounted to 104%.

Consider `CCCCc1nc(-c2nc(N)c3c(n2)NC(=O)C3(C)c2ccc(C(F)(F)F)cn2)cn2ncnc12` (stereo not drawn) [Example 67B, 4-amino-2-(8-butyl-[1,2,4]triazolo[1,5-a]pyrazin-6-yl)-5-methyl-5-(5-(trifluoromethyl)pyridin-2-yl)-5H-pyrrolo[2,3-d]pyrimidin-6(7H)-one], for which the “Maximum peak decrease” value in assay [1] (P.O. 0.3 mpk) was “B (Category B=SBP in SHRs 20-40 mmHg)”. Also, the Emax in assay [2] turned out to be 119%.

`CC(C)Cc1nc(-c2nc(N)c3c(n2)NC(=O)[C@@]3(C)c2ccc(F)cc2)cn2ncnc12` [Example 73A, (S)-4-amino-5-(4-fluorophenyl)-2-(8-isobutyl-[1,2,4]triazolo[1,5-a]pyrazin-6-yl)-5-methyl-5,7-dihydro-6H-pyrrolo[2,3-d]pyrimidin-6-one]: in assay [1] (P.O. 1 mpk), the “Maximum peak decrease” value is “B (Category B=SBP in SHRs 20-40 mmHg)”. The Emax in assay [2] was 101%.

Turning to `C[C@@]1(c2ccc(F)cc2)C(=O)Nc2nc(-c3cn4ncnc4c(CCC(F)(F)F)n3)nc(N)c21` [Example 74A, (S)-4-amino-5-(4-fluorophenyl)-5-methyl-2-(8-(3,3,3-trifluoropropyl)-[1,2,4]triazolo[1,5-a]pyrazin-6-yl)-5,7-dihydro-6H-pyrrolo[2,3-d]pyrimidin-6-one], in assay [1] (P.O. 1 mpk), the “Maximum peak decrease” value is “B (Category B=SBP in SHRs 20-40 mmHg)”. In assay [2], the Emax worked out at 110%.

`CC1(c2ccc(Cl)cc2)C(=O)Nc2nc(-c3cn4ncnc4c(CCC(F)(F)F)n3)nc(N)c21` (stereo not drawn) [Example 76A, 4-amino-5-(4-chlorophenyl)-5-methyl-2-(8-(3,3,3-trifluoropropyl)-[1,2,4]triazolo[1,5-a]pyrazin-6-yl)-5H-pyrrolo[2,3-d]pyrimidin-6(7H)-one]: the “Maximum peak decrease” value in assay [1] (P.O. 0.3 mpk) is “A (Category A=SBP in SHRs <20 mmHg)”. Besides, the Emax in assay [2] is 120%.

With `CC1(c2ccc(C(F)(F)F)cc2)C(=O)Nc2nc(-c3cn4ncnc4c(CCC(F)(F)F)n3)nc(N)c21` (stereo not drawn) [Example 77B, 4-amino-5-methyl-5-(4-(trifluoromethyl)phenyl)-2-(8-(3,3,3-trifluoropropyl)-[1,2,4]triazolo[1,5-a]pyrazin-6-yl)-5H-pyrrolo[2,3-d]pyrimidin-6(7H)-one], the “Maximum peak decrease” value in assay [1] (P.O. 1 mpk) was “A (Category A=SBP in SHRs <20 mmHg)”. In addition, the Emax in assay [2] came out at 112%.

In the case of `CC1(c2ccc(C(F)(F)F)cn2)C(=O)Nc2nc(-c3cn4ncnc4c(CCC(F)(F)F)n3)nc(N)c21` (stereo not drawn) [Example 78B, 4-amino-5-methyl-5-(5-(trifluoromethyl)pyridin-2-yl)-2-(8-(3,3,3-trifluoropropyl)-[1,2,4]triazolo[1,5-a]pyrazin-6-yl)-5H-pyrrolo[2,3-d]pyrimidin-6(7H)-one], in assay [1] (P.O. 3 mpk), the “Maximum peak decrease” value is recorded as “B (Category B=SBP in SHRs 20-40 mmHg)”. In addition, the Emax in assay [2] came out at 83%.

The values are drawn from patent publication US10925876B2, “Methods for using triazolo-pyrazinyl soluble guanylate cyclase activators in fibrotic disorders” (Merck Sharp & Dohme Corp., priority 2016, dated 2021).
